Reference: patent publication US9518051B2, “Pyrroloquinoline alkaloids as antimalarial agents and process for the preparation thereof” (Council of Scientific & Industrial Research, priority 2012, dated 2016)

Legend:
[1] = tested on: Plasmodium falciparum 3D7 (chloroquine sensitive strain); experiment: Anti malarial activity in vitro on Plasmodium falciparum at erythrocyte stage; type: cell-based; details: compound in crude form
Experimental: In a preferred embodiment, the compound NCLite-M1 was tested for anti-malarial activity against a known parasite Plasmodium falciprum 3D7 was used, which is chloroquine sensitive strain and the results are tabulated herein.
This study was performed in vitro on Plasmodium falciparum at erythrocyte stage. The test protocol for testing antimalarial activity is from R. E. Desjardins, C. J. Canfield, J. D. Haynes and J. D. Chulay Antimicrob. Agents Chemother. 1979, 16, 710.
A known parasite 3D7 was used, which is Chloroquine sensitive strain. 2 mg of the compound NCLite-M1 which has a molecular weight of 326.35, was dissolved in 10 mL of EtOH and used as a stock. […] Further studies using highly pure compound and its soluble salts are planned.

| SMILES | melting point | other results |
| --- | --- | --- |
| Nc1ncnc2c1ncn2Cc1nc2ccccc2c2cc[nH]c12 [Aplidiopsamine A] | 229 to 231 °C |  |
| O=c1c2ccccc2ncn1Cc1nc2ccccc2c2cc[nH]c12 [NCLite-M1, 3-((3H-pyrrolo[2,3-c]quinolin-4-yl)methyl)quinazolin-4(3H)-one] |  | lowest concentration at which the compound is active ([1]; P. falciparum 3D7): 2 µmol; inhibition at 25 µM ([1]; Plasmodium falciparum, concentration 25 μM, P. falciparum 3D7, erythrocyte stage, read-out: % inhibition by NCLite-M1): 19.5%; inhibition at 50 µM ([1]; Plasmodium falciparum, concentration 50 μM, P. falciparum 3D7, erythrocyte stage, read-out: % inhibition by NCLite-M1): 77.2%; inhibition at 75 µM ([1]; Plasmodium falciparum, concentration 75 μM, P. falciparum 3D7, erythrocyte stage, read-out: % inhibition by NCLite-M1): 89.4%; % inhibition by NCLite-M1 ([1]; concentration 2-5 μM, P. falciparum 3D7, erythrocyte stage): 17.6% |
| Cc1nc2cc(Cl)ccc2c2ccn(S(=O)(=O)c3ccccc3)c12 [Table 2, entry 2, 7-chloro-4-methyl-3-(phenylsulfonyl)-3H-pyrrolo[2,3-c]quinoline] | 178 to 180 °C |  |

The next lines start with results.

| melting point | SMILES | other results |
| --- | --- | --- |
| 233 to 235 °C | N#Cc1ccc2nc(-c3ccccc3)c3ccccc3c2c1 [Table 2, entry 5, 6-phenylphenanthridine-2-carbonitrile] |  |
| 194 to 196 °C | N#Cc1ccc2[nH]c(-c3ccccc3)cc2c1 [Table 2, entry 6, 2-phenyl-1H-indole-5-carbonitrile] |  |
| 143 to 145 °C | Cc1nc2ccccc2c2ccn(S(=O)(=O)c3ccccc3)c12 [compound 3, 4-Methyl-3-(phenylsulfonyl)-3H-pyrrolo[2,3-c]quinoline] |  |
